Measurements as given in the NIST ThermoML archive (doi:10.1016/j.fluid.2009.09.005).

Key:
[1] = Capillary rise
[2] = wn = mass fraction of the nth substance listed; conditions: Capillary rise

CC(F)F [1,1-difluoroethane]
[1]
Conditions	surface tension liquid-gas [mN/m]
298.18 K	9.747
303.23 K	9.062
308.19 K	8.505
313.13 K	7.731

CC(C)C [2-methylpropane]
[1]
Conditions	surface tension liquid-gas [mN/m]
313.17 K	8.28
318.13 K	7.704
323.16 K	7.182
328.12 K	6.691
328.13 K	6.669

FC(F)C(F)(F)F [pentafluoroethane] + CC(F)F
[2]
Conditions	surface tension liquid-gas [mN/m]
243.08 K, w1 = 0.2019	16.5
243.16 K, w1 = 0.097	17
243.22 K, w1 = 0.2996	15.6
248.09 K, w1 = 0.2019	15.8
248.12 K, w1 = 0.2996	15
248.13 K, w1 = 0.097	16.2
253.12 K, w1 = 0.2019	15.1
253.13 K, w1 = 0.2996	14.3
253.55 K, w1 = 0.097	15.3
258.11 K, w1 = 0.097	14.6
258.16 K, w1 = 0.2019	14.4
258.16 K, w1 = 0.2996	13.7
263.06 K, w1 = 0.097	13.9
263.17 K, w1 = 0.2996	13
263.19 K, w1 = 0.2019	13.5
268.12 K, w1 = 0.097	13.3
268.17 K, w1 = 0.2019	12.9
268.18 K, w1 = 0.2996	12.2
273.18 K, w1 = 0.097	12.5
273.18 K, w1 = 0.2996	11.4
273.19 K, w1 = 0.2019	12.2
278.17 K, w1 = 0.2996	10.6
278.18 K, w1 = 0.097	11.8
278.42 K, w1 = 0.2019	11.4
283.13 K, w1 = 0.097	11.2
283.15 K, w1 = 0.2019	10.6
283.17 K, w1 = 0.2996	10.1
288.16 K, w1 = 0.2019	9.9
288.17 K, w1 = 0.097	10.6
288.18 K, w1 = 0.2996	9.5
293.14 K, w1 = 0.2019	9.4
293.17 K, w1 = 0.097	9.8
293.18 K, w1 = 0.2996	8.7
298.08 K, w1 = 0.2019	8.8
298.1 K, w1 = 0.097	9.2
298.11 K, w1 = 0.2996	8
303.13 K, w1 = 0.2019	8
303.17 K, w1 = 0.097	8.5
303.18 K, w1 = 0.2996	7.4
308.1 K, w1 = 0.097	7.9
308.1 K, w1 = 0.2019	7.4
308.12 K, w1 = 0.2996	6.7
313.11 K, w1 = 0.2019	6.7
313.16 K, w1 = 0.097	7.2
313.19 K, w1 = 0.2996	6.1
318.11 K, w1 = 0.2019	6.1
318.12 K, w1 = 0.097	6.5
318.16 K, w1 = 0.2996	5.5
323.14 K, w1 = 0.2019	5.4
323.16 K, w1 = 0.097	5.8
323.17 K, w1 = 0.2996	5
328.1 K, w1 = 0.2019	4.8
328.11 K, w1 = 0.097	5.2
328.16 K, w1 = 0.2996	4.3
